Test results: patent US20130324576A1, “THERAPEUTIC COMPOUNDS” (Takeda Pharmaceutical Company Limited, priority 2012, published 2013)

Target: T1, human PKR1 receptors (Homo sapiens, UniProt Q8TCW9)
T1 construct: expressed in transfected cells; host or cells: RBL2H3 cells (rat basophilic leukaemia line) expressing human PKR1
Test: PKR1 antagonist assay: block of PK1-mediated intracellular calcium release (FLIPR Tetra, Calcium 5 dye)
Format: cell-based
Conditions: RBL2H3 cells expressing human PKR1; 10 min pre-incubation, stimulation with PK1 at EC80; calcium fluorescence
Method: Prokineticin receptor 1 (PKR1) antagonists may be functionally assessed by measurement of change in intracellular calcium levels induced by Gq mediated increase in inositol triphosphate (IP3) levels. The ability of a compound to block the intracellular release of calcium mediated by PK1 in RBL2H3 cells expressing human PKR1 receptors is determined as a measure of the compound's antagonist activity in vitro.
Approximately 10,000 cells per assay well are seeded in normal culture medium in a 384 well plate (Corning). Twenty-four hours after seeding, the cells are loaded with a calcium sensitive fluorescent dye by replacing the culture medium with assay buffer (1× Hanks buffered saline, 25 mM HEPES, 0.1% w/v fatty acid free BSA (bovine serum albumin), pH 7.4) containing 1 mM probenecid and 1× Calcium 5 Reagent (Molecular Devices). Cells are incubated at 37° C. for 1 hour to allow for dye uptake.
To test for antagonist activity, test compounds at a final concentration range between 0.32 nM-10 μM (diluted in assay buffer) are added to the assay wells and allowed to incubate for 10 minutes prior to stimulation with PK1. After incubation with test compounds the assay plate is placed in a FLIPR Tetra (Molecular Devices) and PK1 (diluted in assay buffer) is added at the determined EC80 concentration (final). Ligand-dependent changes in intracellular calcium levels are determined by measuring changes in fluorescence of the dye at […] following excitation at 485 nm.

T1 sequence (Q8TCW9 whole entry): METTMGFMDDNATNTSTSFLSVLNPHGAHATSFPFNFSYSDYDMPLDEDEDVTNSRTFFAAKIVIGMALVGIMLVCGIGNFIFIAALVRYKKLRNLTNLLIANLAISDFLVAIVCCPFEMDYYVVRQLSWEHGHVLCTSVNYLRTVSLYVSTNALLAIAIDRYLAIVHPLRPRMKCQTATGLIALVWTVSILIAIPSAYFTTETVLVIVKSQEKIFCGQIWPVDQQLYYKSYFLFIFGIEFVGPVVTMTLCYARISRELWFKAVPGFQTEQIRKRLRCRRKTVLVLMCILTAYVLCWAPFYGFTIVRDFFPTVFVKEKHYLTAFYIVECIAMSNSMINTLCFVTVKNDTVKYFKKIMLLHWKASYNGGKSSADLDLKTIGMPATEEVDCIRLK

Cc1n[nH]c(C)c1S(=O)(=O)N1CCC(Nc2ccc(Cl)cc2)CC1 [Example 103, N-(4-Chlorophenyl)-1-((3,5-dimethyl-1H-pyrazol-4-yl)sulfonyl)piperidin-4-amine]
IC50: 1760 nM

COc1cc(Cl)ccc1CC1(O)CCN(S(=O)(=O)c2c(C)nn(C)c2C)CC1 [Example 88, 4-(4-Chloro-2-methoxybenzyl)-1-((1,3,5-trimethyl-1H-pyrazol-4-yl)sulfonyl)piperidin-4-ol]
IC50: 200 nM

Cc1nn(C)c(C)c1S(=O)(=O)N1CCC(Oc2ccc(Cl)cc2)CC1 [Example 5, 4-(4-Chlorophenoxy)-1-[(1,3,5-trimethyl-1H-pyrazol-4-yl)sulfonyl]piperidine]
IC50: 530 nM

Cc1nn(C)c(C)c1S(=O)(=O)N1CCC(C(=O)c2ccc(Cl)c(Cl)c2)CC1 [Example 50, (3,4-Dichlorophenyl)(1-((1,3,5-trimethyl-1H-pyrazol-4-yl)sulfonyl)piperidin-4-yl)methanone]
IC50: 2100 nM

Cc1n[nH]c(C)c1S(=O)(=O)N1CCC(O)(Cc2ccc(Cl)c(Cl)c2)CC1 [Example 70, 4-(3,4-Dichlorobenzyl)-1-((3,5-dimethyl-1H-pyrazol-4-yl)sulfonyl)piperidin-4-ol]
IC50: 8620 nM

Cc1n[nH]c(C)c1S(=O)(=O)N1CCC(C(F)c2ccc(Cl)cc2)CC1 (stereo not shown) [Example 105, 4-((4-Chlorophenyl)fluoromethyl)-1-((3,5-dimethyl-1H-pyrazol-4-yl)sulfonyl)piperidine]
IC50: 410 nM

COC(c1ccc(Cl)cc1)C1CCN(S(=O)(=O)c2c(C)n[nH]c2C)CC1 (stereo not shown) [Example 96, 4-((4-Chlorophenyl)(methoxy)methyl)-1-((3,5-dimethyl-1H-pyrazol-4-yl)sulfonyl)piperidine]
IC50: 80 nM

Cc1n[nH]c(C)c1S(=O)(=O)N1CCC(C(F)c2ccc(Cl)cc2)CC1 (single isomer, unassigned) [Example 106, 4-((4-Chlorophenyl)fluoromethyl)-1-((3,5-dimethyl-1H-pyrazol-4-yl)sulfonyl)piperidine]
IC50: 4000 nM

Cc1nn(C)c(Cl)c1S(=O)(=O)N1CCC(Oc2ccc(Cl)cc2)CC1 [Example 15, 1-[(5-Chloro-1,3-dimethyl-1H-pyrazol-4-yl)sulfonyl]-4-(4-chlorophenoxy)piperidine]
IC50: 2900 nM

Cc1ccc(OC2CCN(S(=O)(=O)c3c(C)nn(C)c3Cl)CC2)cc1 [Example 11, 1-[(5-Chloro-1,3-dimethyl-1H-pyrazol-4-yl)sulfonyl]-4-(4-methylphenoxy)piperidine]
IC50: 860 nM

COC(c1ccccc1)C1CCN(S(=O)(=O)c2c(C)n[nH]c2C)CC1 (stereo not shown) [Example 110, 1-((3,5-Dimethyl-1H-pyrazol-4-yl)sulfonyl)-4-(methoxy(phenyl)methyl)piperidine]
IC50: 3010 nM

Cc1nn(C)c(C)c1S(=O)(=O)N1CCC(C(O)c2ccc(Cl)cc2)CC1 (stereo not shown) [Example 95, (4-Chlorophenyl)(1-((1,3,5-trimethyl-1H-pyrazol-4-yl)sulfonyl)piperidin-4-yl)methanol]
IC50: 710 nM

Cc1nn(C)c(C)c1S(=O)(=O)N1CCC(O)(Cc2ccc(Cl)cc2)CC1 [Example 57, 4-(4-Chlorobenzyl)-1-((1,3,5-trimethyl-1H-pyrazol-4-yl)sulfonyl)piperidin-4-ol]
IC50: 1600 nM

COc1c(F)cc(OC2CCN(S(=O)(=O)c3c(C)nn(C)c3C)CC2)cc1F [Example 44, 4-(3,5-Difluoro-4-methoxyphenoxy)-1-(trimethyl-1H-pyrazole-4-sulfonyl)piperidine]
IC50: 5100 nM

Cc1nn(C)c(Cl)c1S(=O)(=O)N1CCC(Oc2ccc(Cl)cc2Cl)CC1 [Example 25, 1-[(5-Chloro-1,3-dimethyl-1H-pyrazol-4-yl)sulfonyl]-4-(2,4-dichlorophenoxy)piperidine]
IC50: 1300 nM

COc1cc(Cl)ccc1OC1CCN(S(=O)(=O)c2c(C)nn(C)c2C)CC1 [Example 74, 4-(4-Chloro-2-methoxyphenoxy)-1-((1,3,5-trimethyl-1H-pyrazol-4-yl)sulfonyl)piperidine]
IC50: 170 nM

Cc1nn(C)c(C)c1S(=O)(=O)N1CCC(Oc2ccc(Cl)cc2)CC1C (stereo not shown) [Example 24, 4-(4-Chlorophenoxy)-2-methyl-1-[(1,3,5-trimethyl-1H-pyrazol-4-yl)sulfonyl]piperidine]
IC50: 1500 nM

COCC1(Cc2ccc(Cl)cc2)CCN(S(=O)(=O)c2c(C)nn(C)c2C)CC1 [Example 60, 4-(4-Chlorobenzyl)-4-(methoxymethyl)-1-((1,3,5-trimethyl-1H-pyrazol-4-yl)sulfonyl)piperidine]
IC50: 900 nM

Cc1cnn(C)c1S(=O)(=O)N1CCC(Oc2ccc(Cl)cc2)CC1 [Example 37, 4-(4-Chlorophenoxy)-1-(1,4-dimethyl-1H-pyrazole-5-sulfonyl)piperidine]
IC50: 7400 nM

Cc1n[nH]c(C)c1S(=O)(=O)N1CCC(Oc2ccc(Cl)cc2)CC1 [Example 8, 4-(4-Chlorophenoxy)-1-[(3,5-dimethyl-1H-pyrazol-4-yl)sulfonyl]piperidine]
IC50: 1450 nM

Cc1nn(C)c(C)c1S(=O)(=O)N1CCC(Oc2ccc(Cl)cn2)CC1 [Example 48, 5-Chloro-2-((1-((1,3,5-trimethyl-1H-pyrazol-4-yl)sulfonyl)piperidin-4-yl)oxy)pyridine]
IC50: 3800 nM

Cc1n[nH]c(C)c1S(=O)(=O)N1CCC(Oc2ccc(Cl)c(Cl)c2)CC1 [Example 2, 4-(3,4-Dichlorophenoxy)-1-[(3,5-dimethyl-1H-pyrazol-4-yl)sulfonyl]piperidine]
IC50: 1000 nM

CCOC(=O)C1(Cc2ccc(Cl)cc2)CCN(S(=O)(=O)c2c(C)nn(C)c2C)CC1 [Example 61, Ethyl 4-(4-chlorobenzyl)-1-((1,3,5-trimethyl-1H-pyrazol-4-yl)sulfonyl)piperidine-4-carboxylate]
IC50: 1080 nM

Cc1nn(C)c(C)c1S(=O)(=O)N1CCC(Oc2c(F)cc(Cl)cc2F)CC1 [Example 46, 4-(4-Chloro-2,6-difluorophenoxy)-1-(trimethyl-1H-pyrazole-4-sulfonyl)piperidine]
IC50: 1000 nM

Cc1nn(C)c(C)c1S(=O)(=O)N1CCC(O)(Cc2ccc(Cl)c(Cl)c2)CC1 [Example 69, 4-(3,4-Dichlorobenzyl)-1-((1,3,5-trimethyl-1H-pyrazol-4-yl)sulfonyl)piperidin-4-ol]
IC50: 6470 nM

COc1cc(Cl)ccc1CC1(OC)CCN(S(=O)(=O)c2c(C)n[nH]c2C)CC1 [Example 86, 4-(4-Chloro-2-methoxybenzyl)-1-((3,5-dimethyl-1H-pyrazol-4-yl)sulfonyl)-4-methoxypiperidine]
IC50: 4600 nM

Cc1n[nH]c(C)c1S(=O)(=O)N1CCC(Oc2ccccc2F)CC1 [Example 76, 1-((3,5-Dimethyl-1H-pyrazol-4-yl)sulfonyl)-4-(2-fluorophenoxy)piperidine]
IC50: 3730 nM

Cc1n[nH]c(C)c1S(=O)(=O)N1CCC(C(C#N)c2ccc(Cl)cc2)CC1 (stereo not shown) [Example 93, 2-(4-Chlorophenyl)-2-(1-((3,5-dimethyl-1H-pyrazol-4-yl)sulfonyl)piperidin-4-yl)acetonitrile]
IC50: 610 nM

COc1cc(Cl)cnc1OC1CCN(S(=O)(=O)c2c(C)n[nH]c2C)CC1 [Example 85, 5-Chloro-2-((1-((3,5-dimethyl-1H-pyrazol-4-yl)sulfonyl)piperidin-4-yl)oxy)-3-methoxypyridine]
IC50: 1230 nM

Cc1nn(C)c(C)c1S(=O)(=O)N1CCC(Oc2ccc(Cl)c(Cl)c2)CC1 [Example 1, 4-(3,4-Dichlorophenoxy)-1-((1,3,5-trimethyl-1H-pyrazol-4-yl)sulfonyl)piperidine]
IC50: 1400 nM

CCOC(=O)C1(Cc2ccc(Br)cc2)CCN(S(=O)(=O)c2c(C)n[nH]c2C)CC1 [Example 62, Ethyl 4-(4-bromobenzyl)-1-((3,5-dimethyl-1H-pyrazol-4-yl)sulfonyl)piperidine-4-carboxylate]
IC50: 680 nM

Cc1nn(C)c(C)c1S(=O)(=O)N1CCC(Cc2ccc(Cl)cc2F)CC1 [Example 83, 4-(4-Chloro-2-fluorobenzyl)-1-((1,3,5-trimethyl-1H-pyrazol-4-yl)sulfonyl)piperidine]
IC50: 730 nM

Cc1n[nH]c(C)c1S(=O)(=O)N1CCC(Oc2ccc(Cl)cc2C(F)(F)F)CC1 [Example 40, 4-[4-Chloro-2-(trifluoromethyl)phenoxy]-1-(3,5-dimethyl-1H-pyrazole-4-sulfonyl)piperidine]
IC50: 210 nM

Cc1nn(C)c(C)c1S(=O)(=O)N1CCC(F)(Cc2ccc(Cl)cc2F)CC1 [Example 81, 4-(4-Chloro-2-fluorobenzyl)-4-fluoro-1-((1,3,5-trimethyl-1H-pyrazol-4-yl)sulfonyl)piperidine]
IC50: 670 nM

CCc1n[nH]c(CC)c1S(=O)(=O)N1CCC(Cc2ccc(Cl)cc2)CC1 [Example 66, 4-(4-Chlorobenzyl)-1-((3,5-diethyl-1H-pyrazol-4-yl)sulfonyl)piperidine]
IC50: 1010 nM

Cc1nn(C)c(C)c1S(=O)(=O)N1CCC(O)(Cc2ccc(Cl)cc2Cl)CC1 [Example 59, 4-(2,4-Dichlorobenzyl)-1-((1,3,5-trimethyl-1H-pyrazol-4-yl)sulfonyl)piperidin-4-ol]
IC50: 2400 nM

Cc1n[nH]c(C)c1S(=O)(=O)N1CCC(Oc2ccc(Cl)cc2Cl)CC1 [Example 22, 4-(2,4-Dichlorophenoxy)-1-[(3,5-dimethyl-1H-pyrazol-4-yl)sulfonyl]piperidine]
IC50: 1180 nM
